Experimental data reported in US20260041744A1, “Methods for Treating Pompe Disease” (Amicus Therapeutics, Inc., priority 2022, published 2026).
Entries after “also recorded” stand apart in the source; their conditions may differ.

Tests used:
[1] = tested on: adult subjects with late-onset Pompe disease (LOPD); experiment: Study ATB200-03: global test and responder analyses on 6MWD, FVC, MMT; assay type: in vivo, human
Excerpt: To support the interpretation of clinical benefit, a composite subject-level response was defined based on the totality of the treatment outcome data. Subjects were classified by an ordinal response variable consisting of significant improvement, moderate improvement, or minor/no improvement based on treatment outcomes.
Thresholds for clinically relevant changes for 6MWD and FVC in Pompe specifically are not well established, however a large body of data exists from other neuromuscular and chronic respiratory diseases, especially interstitial pulmonary fibrosis (IPF). […] Accordingly, these thresholds were applied to analyses of Study ATB200-03 data.
Additional post hoc patient-level analyses were conducted using these thresholds for 6MWD (±6%) and FVC (±3%) separately and combined.

[2] = tested on: adult subjects with LOPD; experiment: Study ATB200-07 (OLE): PROMIS-Fatigue; assay type: in vivo, human
Excerpt: Analysis populations presented in this summary are 1) the OLE-ES Population (all subjects who satisfied the eligibility requirements (based on the inclusion and exclusion criteria) and entered Study ATB200-07 and 2) the OLE-FAS Population (all subjects who entered the OLE Study ATB200-07 who had both a valid ATB200-07 baseline and at least 1 post-baseline assessment for at least 1 of the 6 main efficacy endpoints [6MWD, sitting % predicted FVC, MMT-lower extremities, PROMIS-Physical Function, PROMIS-Fatigue, and GSGC]).

[3] = tested on: adult subjects with LOPD; experiment: Study ATB200-07 (OLE): CK
Procedure: The Phase III double-blind PROPEL study (NCT03729362; ATB200-03) described in Examples 9 and 10 above compared the investigational two-component therapy cipaglucosidase alfa/miglustat (cipa/mig) with alglucosidase alfa/placebo (alglu) in adults with late-onset Pompe disease (LOPD) over 52 weeks. The ongoing open-label extension (OLE) of PROPEL (NCT04138277; ATB200-07) evaluates long-term safety and efficacy of cipa/mig. Outcomes include 6 minute walk distance (6MWD), forced vital capacity (FVC), creatine kinase (CK) and hexose tetrasaccharide (Hex4) levels and safety. Data are reported as change from the PROPEL baseline to OLE week 52 (104 weeks after the PROPEL baseline).

[4] = tested on: adults with Pompe disease; experiment: Study ATB200-02: plasma/serum creatine kinase (CK); conditions: for mean reduction from baseline in plasma CK: b512 prints a minus sign
Procedure: The change from baseline (CFBL) in 6MWD, % predicted sitting FVC, manual muscle test (MMT) and biomarkers—urine glucose tetrasaccharide (Hex4) and serum creatine kinase (CK)—were assessed at regular intervals.

[5] = ITT Population, change from baseline to Week 52, 2-sided p 0.022
[6] = Study ATB200-03 baseline, OLE-ES Population excluding Subject 4005-2511
[7] = change from ATB200-03 baseline at Week 104, alglucosidase alfa/placebo group switched to cipaglucosidase alfa/miglustat at Week 52, OLE-ES excluding Subject 4005-2511

With “ATB200/miglustat: two-component therapy: cipaglucosidase alfa (ATB200) administered in conjunction with miglustat (AT2221), a stabilizer of cipaglucosidase alfa” the “Wilcoxon rank sum test on sum of ranks for 6MWD and % predicted FVC: Sum of Scores” value ([1]; Excluding Subject 4005-2511, change from baseline to Week 52, 2-sided p 0.010) was 5587.5, the “Wilcoxon rank sum test on sum of ranks for 6MWD and FVC: Mean Score” value [1, 5] was 66.5 and the “Wilcoxon rank sum test on sum of ranks for 6MWD and FVC: Sum of Scores” value [1, 5] was 5587.5. The “post hoc global test on 6MWD and % predicted FVC” value ([1]; Wilcoxon rank-sum on summed ranks, listed as cipaglucosidase alfa/miglustat) was “greater improvement in either 6MWD or FVC; also recorded: greater improvement in subjects treated with cipaglucosidase alfa/miglustat versus alglucosidase alfa/placebo”, the “patient-level responder analyses 6MWD, FVC, MMT” value ([1]; thresholds ±6%, ±3%, ±7%, overall population, listed as cipaglucosidase alfa/miglustat) was “a greater proportion of subjects in the overall population treated with cipaglucosidase alfa/miglustat demonstrated clinically meaningful improvement and a smaller proportion demonstrated clinically meaningful worsening across these 3 endpoints; also recorded: significantly greater proportion of subjects with improvement on both domains” and the “PROMIS-Fatigue, mean BSL” value [2, 6] was 22.1. The “PROMIS-Fatigue, mean 52-wk CFB” value ([2]; change from ATB200-03 baseline at Week 52, decrease indicates improvement, OLE-ES excluding Subject 4005-2511) was −2.3, the “PROMIS-Fatigue, mean 104-wk CFB” value [2, 7] was −1.6 and the “CK course to Week 104” value ([3]; OLE-ES Population, listed as cipaglucosidase alfa/miglustat) was “CK and Hex4 declined substantially through Study ATB200-03, then stabilized through Study ATB200-07; also recorded: declined substantially after subjects switched to cipaglucosidase alfa/miglustat through Week 104”. For the same substance, the “CK, mean BSL” value [3, 6] was 440.6, the “CK, mean 52-wk CFB” value ([3]; change from ATB200-03 baseline at Week 52, OLE-ES excluding Subject 4005-2511) was −129.1 and the “CK, mean 104-wk CFB” value [3, 7] was −154.9. The “Serum creatine kinase, % CFBL mean” value ([4]; Ambulatory ERT-experienced, 12 months) was −20.5%, the “Serum creatine kinase, % CFBL mean” value ([4]; Ambulatory ERT-experienced, 24 months) was −29.9% and the “Serum creatine kinase, % CFBL mean” value ([4]; Ambulatory ERT-experienced, 36 months) was −30.0%. For the same substance, the “Serum creatine kinase, % CFBL mean” value ([4]; Ambulatory ERT-experienced, 48 months) was −35.3%, the “Serum creatine kinase, % CFBL mean” value ([4]; Ambulatory ERT-naïve, 12 months) was −50.6% and the “Serum creatine kinase, % CFBL mean” value ([4]; Ambulatory ERT-naïve, 24 months) was −46.5%. For the same substance, the “Serum creatine kinase, % CFBL mean” value ([4]; Ambulatory ERT-naïve, 36 months) was −50.7%, the “Serum creatine kinase, % CFBL mean” value ([4]; Ambulatory ERT-naïve, 48 months) was −35.9% and the “mean reduction from baseline in plasma CK” value (“mean reduction from baseline” below) ([4]; Cohort 2 (non-ambulatory ERT-experienced), 12 months, listed as cipaglucosidase alfa plus miglustat) was 20.8%. For the same substance, the “mean reduction from baseline” value ([4]; Cohort 2 (non-ambulatory ERT-experienced), 12 months, listed as cipaglucosidase alfa/miglustat) was −20.8%, the “mean reduction from baseline” value ([4]; Cohort 2, 24 months, listed as cipaglucosidase alfa plus miglustat) was 25.3% and the “mean reduction from baseline” value ([4]; Cohort 2, 24 months, listed as cipaglucosidase alfa/miglustat) was −25.3%. For the same substance, the “mean reduction from baseline” value ([4]; Cohort 2, 36 months, listed as cipaglucosidase alfa plus miglustat) was 27.1%, the “mean reduction from baseline” value ([4]; Cohort 2, 36 months, listed as cipaglucosidase alfa/miglustat) was −27% and the “mean reduction from baseline” value ([4]; Cohort 2, 48 months, listed as cipaglucosidase alfa plus miglustat) was 23.7%. For the same substance, the “mean reduction from baseline” value ([4]; Cohort 2, 48 months, listed as cipaglucosidase alfa/miglustat) was −23.7%, the “patients with abnormal baseline CK who had normal CK levels at Month 48” value ([4]; ERT-experienced (two of six)) was 33.3% and the “patients whose plasma CK decreased numerically from baseline (n/N)” value ([4]; ERT-experienced, 12 months) was 13/15. The “patients whose plasma CK decreased numerically from baseline (n/N)” value ([4]; ERT-experienced, 24 months) was 14/15, the “patients whose plasma CK decreased numerically from baseline (n/N)” value ([4]; ERT-experienced, 36 months) was 9/11 and the “patients whose plasma CK decreased numerically from baseline (n/N)” value ([4]; ERT-experienced, 48 months) was 8/9. For the same substance, the “CK status at Month 48 of patients with abnormal baseline CK” value ([4]; ERT-naïve (two of five abnormal at baseline)) was “remained abnormal at Month 48”, the “patients whose plasma CK decreased numerically from baseline (n/N)” value ([4]; ERT-naïve, 12 months) was 6/6 and the “patients whose plasma CK decreased numerically from baseline (n/N)” value ([4]; ERT-naïve, 24 months) was 6/6. For the same substance, the “patients whose plasma CK decreased numerically from baseline (n/N)” value ([4]; ERT-naïve, 36 months) was 5/5, the “patients whose plasma CK decreased numerically from baseline (n/N)” value ([4]; ERT-naïve, 48 months) was 4/5 and the “Serum creatine kinase, % CFBL mean” value ([4]; Non-ambulatory ERT-experienced, 12 months) was −20.8%. For the same substance, the “Serum creatine kinase, % CFBL mean” value ([4]; Non-ambulatory ERT-experienced, 24 months) was −25.3%, the “Serum creatine kinase, % CFBL mean” value ([4]; Non-ambulatory ERT-experienced, 36 months) was −27.1% and the “Serum creatine kinase, % CFBL mean” value ([4]; Non-ambulatory ERT-experienced, 48 months) was −23.7%.
